Results on four compounds are retold here after US9790200B2, “Dihydroquinoline pyrazolyl compounds” (Hoffmann-La Roche Inc., priority 2015, dated 2017).

As a reminder, the pEC50 is the EC50 on a negative log10 scale, so that one unit is a factor of ten. Read a high pEC50 as a low EC50.

Assay [1] deals with rat model of chronic kidney disease. Conditions: cited from earlier work; for plasma aldosterone: FAD286: 4 weeks of treatment, spironolactone: 4 and 8 weeks of treatment; for angiotensin II and salt-stimulated PAI-1 mRNA expression in the aorta and the heart / renal effects of angiotensin II and high salt (albuminuria, azotemia, renovascular hypertrophy, glomerular injury, PAI-1, osteopontin mRNA, tubulointerstitial fibrosis): rat, in vivo.

Assay [2] concerns patients with primary aldosteronism. Conditions: cited from earlier work.
In assay [3] the test system is rats with experimental heart failure. Conditions: rat, in vivo; cited from earlier work.
The target of a further assay is T1, human CYP11B1 (Homo sapiens, UniProt P15538).
T1 construct: The expression plasmids contains the ORF for either human/cyno CYP11B1 or CYP11B2; expressed in transfected cells
T1 sequence (P15538 25-503): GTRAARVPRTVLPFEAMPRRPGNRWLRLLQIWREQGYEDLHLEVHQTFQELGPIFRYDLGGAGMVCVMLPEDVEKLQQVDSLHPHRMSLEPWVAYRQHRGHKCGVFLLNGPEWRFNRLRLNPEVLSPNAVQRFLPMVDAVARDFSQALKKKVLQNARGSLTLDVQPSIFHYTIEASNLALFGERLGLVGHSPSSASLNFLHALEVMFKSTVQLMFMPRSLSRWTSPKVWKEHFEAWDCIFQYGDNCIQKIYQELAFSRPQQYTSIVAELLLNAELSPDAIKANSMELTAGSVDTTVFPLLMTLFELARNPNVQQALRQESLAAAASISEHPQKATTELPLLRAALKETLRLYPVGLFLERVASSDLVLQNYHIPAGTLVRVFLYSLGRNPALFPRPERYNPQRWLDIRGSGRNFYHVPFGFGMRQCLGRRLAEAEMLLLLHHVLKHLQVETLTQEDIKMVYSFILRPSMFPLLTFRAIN
Nature of the assay: G-402 cellular enzyme assay, human CYP11B1 (cortisol release, HTRF). It counts as cell-based. Conditions: G-402 cells, 1 μM Deoxycortisol. An excerpt: Herein we identified the use of the G-402 cell line as a host cell to ectopically express (transiently or stably) enzymes of the CYP11 family. Specifically we developed stable G-402 cells expressing ectopically human CYP11B1, human CYP11B2, human CYP11A1, cynmolgus CYP11B1 or cynomolgus CYP11B2 enzyme activity. Importantly the identified cell line G-402 expresses co-factors (adrenodoxin and adrenodoxin reductase) important for the activity of the CYP11 family and no relevant enzyme activity of the CYP11 family (in comparison to H295R cells) was detected in these cells. Therefore the G-402 cell line is uniquely suited as a host cell for the ectopic expression of enzymes from the CYP11 family.
G-402 cells can be obtained from ATCC (CRL-1440) and were originally derived from a renal leiomyoblastoma.
The expression plasmids contains the ORF for either human/cyno CYP11B1 or CYP11B2 under the control of a suitable promoter (CMV-promoter) and a suitable resistance marker (neomycin). […] Individual cell-clones are then selected and assessed for displaying the desired enzymatic activity using 11-Deoxycorticosterone (Cyp11B2) or 11-Deoxycortisol (Cyp11B1) as a substrate. […]
[formula] wherein, A is the maximum y value, B is the EC50 factor determined using XLFit, C is the minimum y value and D is the slope value. […]

pEC50: −log10 of the molar value.

`CC(=O)S[C@@H]1CC2=CC(=O)CC[C@]2(C)[C@H]2CC[C@@]3(C)[C@@H](CC[C@@]34CCC(=O)O4)[C@H]12` [spironolactone]: in assay [1], the plasma aldosterone result is “increased”; the “angiotensin II and salt-stimulated PAI-1 mRNA expression in the aorta and the heart” value is “enhanced”; the “renal effects of angiotensin II and high salt (albuminuria, azotemia, renovascular hypertrophy, glomerular injury, PAI-1, osteopontin mRNA, tubulointerstitial fibrosis)” value is listed as “prevented these renal effects”.

Take `N#Cc1ccc([C@H]2CCc3cncn32)c(F)c1` [LCI699]: in assay [2] (human, in vivo), the blood pressure entry is given as “mildly decreased” and the hypokalemia entry was “corrected”. The circulating aldosterone levels result in assay [2] (orally active) is given as “significantly lower”.

With `N#Cc1ccc(C2CCCc3cncn32)cc1` (centres unmarked) [FAD286], in assay [1], the plasma aldosterone result is listed as “reduced”; the “angiotensin II and salt-stimulated PAI-1 mRNA expression in the aorta and the heart” value is recorded as “not”; the “renal effects of angiotensin II and high salt (albuminuria, azotemia, renovascular hypertrophy, glomerular injury, PAI-1, osteopontin mRNA, tubulointerstitial fibrosis)” value was “prevented these renal effects”. Besides, the “blood pressure and cardiovascular function and structure” value in assay [3] is “improved”.

`CN1C(=O)CCc2c1ccc(-c1n[nH]cc1COC1CN(C(=O)c3cnn(C)c3)C1)c2F` [Example 66, 5-Fluoro-1-methyl-6-[4-[[1-(1-methylpyrazole-4-carbonyl)azetidin-3-yl]oxymethyl]-1H-pyrazol-3-yl]-3,4-dihydroquinolin-2-one] gave a pEC50 at human CYP11B1 below 7.52.
